Measurements from patent US10226501B2, “Method of orally administering a date fruit extract to treat breast cancer” (King Abdulaziz University, priority 2017, dated 2019).

System: female Wistar rats having DMBA-induced breast cancer
Assay: Serum antioxidant enzyme activities in rats with DMBA-induced breast cancer
Type: in vivo, rat
Details: oral, daily for three months, ADE 1 or 0.5 g/kg b.w., melatonin 2.5 mM
Text: This is an in vivo experiment showing the improvement of Ajwa Date Extract (ADE) on the antioxidant system in rats having breast cancer induced by 7,12-Dimethylbenz[a]anthracene (DMBA).
The experiment of DMBA-induced breast cancer in female Wistar rats was comprised of six different treatment groups: the untreated controls (administered normal diet), DMBA-treated, DMBA-treated and orally administered 1 g/kg b.w. (body weight) of ADE, DMBA-treated and orally administered 0.5 g/kg b.w. of ADE, DMBA-treated and administered orally 2.5 mM melatonin, and DMBA-treated and administered 2.5 mM melatonin plus 1 g/kg b.w. of ADE. All six groups were treated daily for three months. On sacrification day, samples of blood were collected with the serum being separated and stored at −80° C.
The collected sera were analyzed for four mean activities namely, of superoxide dismutase (SOD) catalase, glutathione reductase (GR), and glutathione peroxidase (GPx). The means of the four activities in sera of the six treatment groups are illustrated in FIGS. 4-7. The mean serum SOD (FIG. 4), catalase (FIG. 5), GR (FIG. 6), and GPx (FIG. 7) in DMBA and ADE and/or melatonin administered rats was higher than that of the DMBA administered rats that were deprived of the ADE and/or melatonin.

COc1ccc2[nH]cc(CCNC(C)=O)c2c1 [melatonin]
higher: mean serum SOD activity (compared with DMBA-only rats (FIG. 4)) | mean serum catalase activity (compared with DMBA-only rats (FIG. 5)) | mean serum GR activity (compared with DMBA-only rats (FIG. 6)) | mean serum GPx activity (compared with DMBA-only rats (FIG. 7))
